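Grown in 96-well plates, cells were treated for 48 hours with each compound at five concentrations. Insufficient inhibition: endpoint recorded as highest concentration tested. TGI marks complete inhibition of growth.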
Assays:
Assay in all cases: growth of human tumour cells (NCI), 48 h
MDA-MB-231 breast = tested on: MDA-MB-231 breast
HS 578T breast = tested on: HS 578T breast
MOLT-4 leukemia = tested on: MOLT-4 leukemia
SR leukemia = tested on: SR leukemia
OVCAR-5 ovarian = tested on: OVCAR-5 ovarian
A498 renal = tested on: A498 renal
ACHN renal = tested on: ACHN renal
SF-295 CNS = tested on: SF-295 CNS
UACC-257 melanoma = tested on: UACC-257 melanoma
UACC-62 melanoma = tested on: UACC-62 melanoma
OVCAR-8 ovarian = tested on: OVCAR-8 ovarian
HT29 colon = tested on: HT29 colon
K-562 leukemia = tested on: K-562 leukemia
HL-60(TB) leukemia = tested on: HL-60(TB) leukemia
U251 CNS = tested on: U251 CNS
MDA-N = tested on: MDA-N
CCRF-CEM leukemia = tested on: CCRF-CEM leukemia
RPMI-8226 leukemia = tested on: RPMI-8226 leukemia
NCI-H522 lung = tested on: NCI-H522 lung
SK-MEL-5 melanoma = tested on: SK-MEL-5 melanoma
LOX IMVI melanoma = tested on: LOX IMVI melanoma
MDA-MB-435 = tested on: MDA-MB-435
HCT-15 colon = tested on: HCT-15 colon
HCC-2998 colon = tested on: HCC-2998 colon
SF-539 CNS = tested on: SF-539 CNS
IGROV1 ovarian = tested on: IGROV1 ovarian
KM12 colon = tested on: KM12 colon
SNB-75 CNS = tested on: SNB-75 CNS
SK-MEL-2 melanoma = tested on: SK-MEL-2 melanoma
SK-OV-3 ovarian = tested on: SK-OV-3 ovarian
MALME-3M melanoma = tested on: MALME-3M melanoma
SW-620 colon = tested on: SW-620 colon
A549 NSCLC = tested on: A549 NSCLC
NCI-H460 lung = tested on: NCI-H460 lung
NCI/ADR-RES ovarian = tested on: NCI/ADR-RES ovarian
OVCAR-4 ovarian = tested on: OVCAR-4 ovarian
786-0 renal = tested on: 786-0 renal
DU-145 prostate = tested on: DU-145 prostate
HCT-116 colon = tested on: HCT-116 colon
M14 melanoma = tested on: M14 melanoma
NCI-H23 lung = tested on: NCI-H23 lung
HOP-62 NSCLC = tested on: HOP-62 NSCLC
EKVX NSCLC = tested on: EKVX NSCLC
T-47D breast = tested on: T-47D breast
SK-MEL-28 melanoma = tested on: SK-MEL-28 melanoma
RXF 393 renal = tested on: RXF 393 renal
COLO 205 colon = tested on: COLO 205 colon
SN12C renal = tested on: SN12C renal
NCI-H226 lung = tested on: NCI-H226 lung
PC-3 prostate = tested on: PC-3 prostate
CAKI-1 renal = tested on: CAKI-1 renal
OVCAR-3 ovarian = tested on: OVCAR-3 ovarian
MCF7 breast = tested on: MCF7 breast
SF-268 CNS = tested on: SF-268 CNS
HOP-92 NSCLC = tested on: HOP-92 NSCLC
BT-549 breast = tested on: BT-549 breast
SNB-19 CNS = tested on: SNB-19 CNS
TK-10 renal = tested on: TK-10 renal
UO-31 renal = tested on: UO-31 renal

Measured: TGI

CC(=O)N=C1N(/C=C2\C(=O)Oc3ccccc3C2=O)C(=O)/C(=C/c2ccc(OC(C)=O)cc2)N1C
not listed: HOP-92 NSCLC | BT-549 breast | SNB-19 CNS | TK-10 renal | UO-31 renal
> 100 µM: all other assays above

CC(=O)OCCOCn1c2c(c(=S)[nH]c1=O)CCC2
not listed: A498 renal | UACC-62 melanoma | SK-OV-3 ovarian | NCI-H460 lung | NCI/ADR-RES ovarian | T-47D breast
> 100 µM: all other assays above
